Measured values from patent US20180201592A1, “2-AMINO-1,3,4-THIADIAZINE AND 2-AMINO-1,3,4-OXADIAZINE BASED ANTIFUNGAL AGENTS” (F2G Limited, priority 2015, published 2018).
≈ marks a conversion by molar mass, not a printed value. Read-outs that look alike come from different tables or passages of the source.

Tests used:
Aspergillus fumigatus = test: Minimum inhibitory concentration, YAG medium; assay type: cell-based; settings: banded MIC grade
In short: (§1)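 MIC, in mg/L, defined as the lowest drug level inhibiting growth by >70% relative to drug-free wells, judged by OD 485 nm after 24 hrs at 35° C. Spores (1-2×10^4 cfu/mL) were grown in YAG medium against doubling dilutions, usually 50-0.05 mg/L, repeated at 0.5-0.0005 mg/L where needed.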

A. fumigatus 210 [1] = test: Minimum inhibitory concentration, YAG medium; assay type: cell-based, Aspergillus fumigatus; settings: banded MIC grade
In short: as §1

A. terreus 49 [2] = test: Minimum inhibitory concentration, YAG medium; assay type: cell-based, Aspergillus terreus; settings: banded MIC grade
In short: (§2)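 Twofold aqueous dilution series, prepared from a DMSO stock (5 mg/mL), were inoculated with Aspergillus spp. spores; incubation lasted 24 hrs at 35° C before OD 485 nm readings.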

Aspergillus flavus = test: Minimum inhibitory concentration, YAG medium; assay type: cell-based; settings: banded MIC grade
In short: as §2

Aspergillus niger = test: Minimum inhibitory concentration, YAG medium; assay type: cell-based; settings: banded MIC grade
In short: as §2

Aspergillus terreus = test: Minimum inhibitory concentration, YAG medium; assay type: cell-based; settings: banded MIC grade
In short: as §2

A. flavus = test: Minimum inhibitory concentration, RPMI medium; assay type: cell-based; settings: banded MIC grade
In short: (§3)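 Incubated at 35° C for 24-48 hrs in RPMI 1640 with twofold water dilutions of compound (from 5 mg/mL stock in DMSO); absorbance at 485 nm indicated growth.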

A. niger = test: Minimum inhibitory concentration, RPMI medium; assay type: cell-based; settings: banded MIC grade
In short: as §3

A. terreus 49 [3] = test: Minimum inhibitory concentration, RPMI medium; assay type: cell-based; settings: banded MIC grade
In short: as §3

A. terreus = test: Minimum inhibitory concentration, RPMI medium; assay type: cell-based; settings: banded MIC grade
In short: as §3

C. albicans = test: Minimum inhibitory concentration, RPMI medium; assay type: cell-based; settings: banded MIC grade; for MIC: Candida albicans, RPMI media
In short: as §3

C. glabrata = test: Minimum inhibitory concentration, RPMI medium; assay type: cell-based; settings: banded MIC grade
In short: as §3

C. krusei = test: Minimum inhibitory concentration, RPMI medium; assay type: cell-based; settings: banded MIC grade
In short: as §3

C. parapsilosis = test: Minimum inhibitory concentration, RPMI medium; assay type: cell-based; settings: banded MIC grade; for MIC: Lodderomyces parapsilosis, RPMI media
In short: as §3

C. tropicalis = test: Minimum inhibitory concentration, RPMI medium; assay type: cell-based; settings: banded MIC grade
In short: as §3

A. fumigatus 210 [4] = test: Minimum inhibitory concentration, RPMI medium; assay type: cell-based; settings: banded MIC grade
Description: (§4) Between 1 and 5 mgs of compound were accurately weighed out into a sterile Eppendorf tube. The compound was dissolved in DMSO to give a solution containing 5 mg/mL. Tubes were stored at −20° C. until required.
(§5) On the day of testing thawed solutions were vortex mixed to ensure homogeneity. 30 μL of solution was removed and added to 570 μL of sterile water in a separate sterile Eppendorf. The thoroughly mixed solution was used to prepare a series of doubling dilutions in water, in a deep well plate. Thirteen replicate plates were prepared using a Minitrak by aspirating 20 μL from each well into eleven clear polystyrene 96 well plates.
(§6) Assays were also performed in RPMI medium (Roswell Park Memorial Media 1640). To perform MIC tests in this medium, dilutions of compounds are prepared in microtitre plates as described above. Fungal strains to be tested are grown and harvested in an identical manner to that described above, and each organism suspension was diluted in RPMI medium, typically containing 2% glucose and 0.135 M MOPS buffer (pH 7.0) to 0.5-2×10^4cfu/mL, rather than in YAG medium. 80 μL of an organism suspension was added to each well of the plate containing drug dilutions.
(§7) This produced MIC plates with a drug range 50-0.05 mg/L and organism inocula of 1-2×10^4 cfu/mL. All plates were incubated for 24-48 hrs at 35° C. Growth was assessed by monitoring the optical density at 485 nm for each well. The MIC of a compound is the lowest drug concentration that inhibits growth of an organism by >80% compared with a drug free control. The following organisms were tested: C. albicans, C. parapsilosis, C. tropicalis, C. glabrata, C. krusei, A. niger, A. fumigatus, A. terreus, A. flavus, A. terreus 49, and A. fumigatus 210.

A. fumigatus = test: Minimum inhibitory concentration, RPMI medium; assay type: cell-based; settings: banded MIC grade
Description: as §4, §5, §6, §7

Row | Structure (SMILES) | MIC grade, A. FUMIGATUS, YAG media (Aspergillus fumigatus) | MIC grade, A. FUMIGATUS 210, YAG media (A. fumigatus 210 [1]) | MIC grade, A. TERREUS 49, YAG media (A. terreus 49 [2]) | MIC grade, A. FLAVUS, YAG media (Aspergillus flavus) | MIC grade, A. NIGER, YAG media (Aspergillus niger) | MIC grade, A. TERREUS, YAG media (Aspergillus terreus) | MIC grade, C. ALBICANS, RPMI media (C. albicans) | MIC grade, C. PARAPSILOSIS, RPMI media (C. parapsilosis) | MIC grade, C. TROPICALIS, RPMI media (C. tropicalis) | further results
1 | CC(=O)OCCCCC1=NN=C(N)SC1 | 4 (4: <0.2 mg/L) | 4 (4: <0.2 mg/L) | 4 (4: <0.2 mg/L) | 4 (4: <0.2 mg/L) | 3 (3: 0.2-1 mg/L) | 4 (4: <0.2 mg/L) | 3 (3: 1-5 mg/L) | 4 (4: <1 mg/L) | 3 (3: 1-5 mg/L) | MIC grade, A. FLAVUS, RPMI media (A. flavus): 3 (3: 1-5 mg/L); MIC grade, A. NIGER, RPMI media (A. niger): 2 (2: 5-20 mg/L); MIC grade, A. TERREUS 49, RPMI media (A. terreus 49 [3]): 3 (3: 1-5 mg/L); MIC grade, A. TERREUS, RPMI media (A. terreus): 3 (3: 1-5 mg/L); MIC grade, C. GLABRATA, RPMI media (C. glabrata): 2 (2: 5-20 mg/L); MIC grade, C. KRUSEI, RPMI media (C. krusei): 4 (4: <1 mg/L); MIC grade, A. FUMIGATUS 210, RPMI media (A. fumigatus 210 [4]): 3 (3: 1-5 mg/L); MIC grade, A. FUMIGATUS, RPMI media (A. fumigatus): 3 (3: 1-5 mg/L)
2 | NC1=NN=C(CCCCOCc2cccc(C(F)(F)F)c2)CS1 | 3 (3: 0.2-1 mg/L) | 3 (3: 0.2-1 mg/L) | 2 (2: 1-5 mg/L) | 3 (3: 0.2-1 mg/L) | 3 (3: 0.2-1 mg/L) | 2 (2: 1-5 mg/L) | 3 (3: 1-5 mg/L) | 2 (2: 5-20 mg/L) | 2 (2: 5-20 mg/L) | MIC grade, A. FLAVUS, RPMI media (A. flavus): 2 (2: 5-20 mg/L); MIC grade, A. NIGER, RPMI media (A. niger): 2 (2: 5-20 mg/L); MIC grade, A. TERREUS 49, RPMI media (A. terreus 49 [3]): 2 (2: 5-20 mg/L); MIC grade, A. TERREUS, RPMI media (A. terreus): 2 (2: 5-20 mg/L); MIC grade, C. GLABRATA, RPMI media (C. glabrata): 1 (1: ≥20 mg/L); MIC grade, C. KRUSEI, RPMI media (C. krusei): 2 (2: 5-20 mg/L); MIC grade, A. FUMIGATUS 210, RPMI media (A. fumigatus 210 [4]): 1 (1: ≥20 mg/L); MIC grade, A. FUMIGATUS, RPMI media (A. fumigatus): 2 (2: 5-20 mg/L)
3 | NC1=NN=C(CCCCOCc2ccc(Cl)c(F)c2)CS1 | 4 (4: <0.2 mg/L) | 4 (4: <0.2 mg/L) | 4 (4: <0.2 mg/L) | 4 (4: <0.2 mg/L) | 4 (4: <0.2 mg/L) | 4 (4: <0.2 mg/L) | 4 (4: <1 mg/L) | 4 (4: <1 mg/L) | 4 (4: <1 mg/L) | MIC grade, A. FLAVUS, RPMI media (A. flavus): 4 (4: <1 mg/L); MIC grade, A. NIGER, RPMI media (A. niger): 4 (4: <1 mg/L); MIC grade, A. TERREUS 49, RPMI media (A. terreus 49 [3]): 3 (3: 1-5 mg/L); MIC grade, A. TERREUS, RPMI media (A. terreus): 3 (3: 1-5 mg/L); MIC grade, C. GLABRATA, RPMI media (C. glabrata): 4 (4: <1 mg/L); MIC grade, C. KRUSEI, RPMI media (C. krusei): 4 (4: <1 mg/L); MIC grade, A. FUMIGATUS 210, RPMI media (A. fumigatus 210 [4]): 2 (2: 5-20 mg/L); MIC grade, A. FUMIGATUS, RPMI media (A. fumigatus): 4 (4: <1 mg/L)
4 | CCCc1ccc(C2=NN=C(N)SC2)cc1 | 3 (3: 0.2-1 mg/L) | 3 (3: 0.2-1 mg/L) | 3 (3: 0.2-1 mg/L) | 2 (2: 1-5 mg/L) | 2 (2: 1-5 mg/L) | 3 (3: 0.2-1 mg/L) | 1 (1: ≥20 mg/L) | 1 (1: ≥20 mg/L) | 1 (1: ≥20 mg/L) | –
5 | NC1=NN=C(CCCCCCc2ccccc2)CS1 | 4 (4: <0.2 mg/L) | 4 (4: <0.2 mg/L) | 3 (3: 0.2-1 mg/L) | 4 (4: <0.2 mg/L) | 4 (4: <0.2 mg/L) | 4 (4: <0.2 mg/L) | 2 (2: 5-20 mg/L) | 4 (4: <1 mg/L) | 3 (3: 1-5 mg/L) | –
6 | CCOC(=O)c1ccc(C2=CSC(N)=NN2C)cc1 [ethyl 4-(2-amino-4-methyl-1,3,4-thiadiazin-5-yl)benzoate] | – | – | – | – | – | – | – | – | – | MIC (Aspergillus fumigatus; Aspergillus fumigatus, YAG media): < 0.2 µg/mL; MIC (A. fumigatus 210 [1]; Aspergillus fumigatus, 210, YAG media): < 0.2 µg/mL; MIC (A. terreus 49 [2]; Aspergillus terreus, 49, YAG media): 0.2 to 1 µg/mL (≈ 0.721 to 3.61 µM); MIC (Aspergillus flavus; Aspergillus flavus, YAG media): < 0.2 µg/mL; MIC (Aspergillus niger; Aspergillus niger, YAG media): 0.2 to 1 µg/mL (≈ 0.721 to 3.61 µM); MIC (Aspergillus terreus; Aspergillus terreus, YAG media): < 0.2 µg/mL; MIC (C. albicans; read-out: MIC grade C. ALBICANS): < 1 µg/mL; MIC (C. albicans; read-out: MIC grade, C. ALBICANS, RPMI media): 1 to 5 µg/mL (≈ 3.61 to 18 µM); MIC (C. parapsilosis; read-out: MIC grade C. PARAPSILOSIS): < 1 µg/mL; MIC (C. parapsilosis; read-out: MIC grade, C. PARAPSILOSIS, RPMI media): < 1 µg/mL; MIC (C. tropicalis; Candida tropicalis, RPMI media): 1 to 5 µg/mL (≈ 3.61 to 18 µM)
7 | CN(CCCCCC1=NN=C(N)SC1)c1ccccc1 | 2 (2: 1-5 mg/L) | 2 (2: 1-5 mg/L) | 3 (3: 0.2-1 mg/L) | 3 (3: 0.2-1 mg/L) | 3 (3: 0.2-1 mg/L) | 3 (3: 0.2-1 mg/L) | 1 (1: ≥20 mg/L) | 2 (2: 5-20 mg/L) | 1 (1: ≥20 mg/L) | –
8 | Cc1cc(C)cc(C2=NN=C(N)SC2)c1 | 1 (1: ≥5 mg/L) | 2 (2: 1-5 mg/L) | 1 (1: ≥5 mg/L) | 1 (1: ≥5 mg/L) | 2 (2: 1-5 mg/L) | 1 (1: ≥5 mg/L) | 1 (1: ≥20 mg/L) | 1 (1: ≥20 mg/L) | 1 (1: ≥20 mg/L) | –
9 | NC1=NN=C(c2ccc3ccccc3c2)CS1 | 2 (2: 1-5 mg/L) | 1 (1: ≥5 mg/L) | 1 (1: ≥5 mg/L) | 1 (1: ≥5 mg/L) | 1 (1: ≥5 mg/L) | 1 (1: ≥5 mg/L) | 1 (1: ≥20 mg/L) | 1 (1: ≥20 mg/L) | 1 (1: ≥20 mg/L) | –
10 | NC1=NN=C(CCCOc2ccccc2)CS1 | 4 (4: <0.2 mg/L) | 4 (4: <0.2 mg/L) | 3 (3: 0.2-1 mg/L) | 4 (4: <0.2 mg/L) | 4 (4: <0.2 mg/L) | 4 (4: <0.2 mg/L) | 2 (2: 5-20 mg/L) | 4 (4: <1 mg/L) | 3 (3: 1-5 mg/L) | –
11 | NC1=NN=C(c2ccc(C3CCCCC3)cc2)CS1 | 1 (1: ≥5 mg/L) | 1 (1: ≥5 mg/L) | 1 (1: ≥5 mg/L) | 1 (1: ≥5 mg/L) | 1 (1: ≥5 mg/L) | 1 (1: ≥5 mg/L) | 1 (1: ≥20 mg/L) | 1 (1: ≥20 mg/L) | 1 (1: ≥20 mg/L) | –
